Patent publication EP4342530A1, “SORTILIN MODULATORS” (Insusense ApS, priority 2022, dated 2024)

Molecular target: T1, h-Sortilin (Homo sapiens, UniProt Q99523)
T1 sequence (Q99523 78-831): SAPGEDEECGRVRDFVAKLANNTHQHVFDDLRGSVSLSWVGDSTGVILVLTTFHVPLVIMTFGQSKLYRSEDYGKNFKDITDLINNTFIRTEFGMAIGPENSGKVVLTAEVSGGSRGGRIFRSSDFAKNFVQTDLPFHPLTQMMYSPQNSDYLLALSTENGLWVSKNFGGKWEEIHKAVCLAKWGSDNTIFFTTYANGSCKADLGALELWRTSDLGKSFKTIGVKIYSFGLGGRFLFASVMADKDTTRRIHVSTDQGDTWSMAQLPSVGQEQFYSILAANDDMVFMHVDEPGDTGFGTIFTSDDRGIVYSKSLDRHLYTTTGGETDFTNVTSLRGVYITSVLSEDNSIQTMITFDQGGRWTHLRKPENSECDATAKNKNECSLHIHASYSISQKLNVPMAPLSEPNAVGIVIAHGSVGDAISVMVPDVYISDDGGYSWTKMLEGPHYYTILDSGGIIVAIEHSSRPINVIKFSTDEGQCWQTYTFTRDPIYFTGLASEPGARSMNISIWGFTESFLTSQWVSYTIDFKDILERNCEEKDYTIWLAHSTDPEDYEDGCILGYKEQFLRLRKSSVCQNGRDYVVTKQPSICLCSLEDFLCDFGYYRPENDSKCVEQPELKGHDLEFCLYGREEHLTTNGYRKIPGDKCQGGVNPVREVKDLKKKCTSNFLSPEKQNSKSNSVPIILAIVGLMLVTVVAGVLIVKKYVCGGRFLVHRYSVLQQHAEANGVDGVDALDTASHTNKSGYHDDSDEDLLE
Assay: Neurotensin scintillation proximity assay (displacement of [3H]-neurotensin binding)
Conditions: 150 nM 6his-Sortilin, 5 nM [3H]-Neurotensin; average of at least 2 determinations; read-out: IC50 [3H]Neurotensin SPA
Outline: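 Compounds pre-incubated 30 min at room temperature with 150 nM 6His-sortilin in HEPES pH 7.4 buffer with NaCl, CaCl2, BSA and Tween-20, then 5 nM [3H]-neurotensin and Ni chelate SPA beads added; read after 6 h. IC50 from 8-point variable-slope fits, mean of at least 2 determinations.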

SMILES | IC50 [nM]
CC(C)(C)CC[C@H](NCc1ccc2c(c1)COCC2)C(=O)O [Example 3, (S)-2-((isochroman-7-ylmethyl)amino)-5,5-dimethylhexanoic acid] | 230
C[C@@H](N[C@@H](CCC(C)(C)C)C(=O)O)c1ccc2c(c1)OCCC2 [Example 9] | 210
C[C@H](N[C@@H](CCC(C)(C)C)C(=O)O)c1ccc2c(c1)CCCO2 [Example 50] | 230
C[C@@H](N[C@@H](CCC(C)(C)C)C(=O)O)c1ccc2c(c1)CCCO2 [Example 52] | 260
